Measurements reported in ChEMBL document CHEMBL1157876, “Isomeric tropane alkaloids from the aerial parts of Schizanthus tricolor” (J Nat Prod, 2010).

Experiments:
Plasmodium falciparum = assay: Antimalarial activity against chloroquine and pyrimethamine-resistant Plasmodium falciparum K1 infected in human erythrocytes after 72 hrs by spectrophotometry based Malstat method; assay type: functional, organism-based; conditions: K1, 72 h
[1] = Cytotoxicity against human MRC5 SV2 cells after 72 hrs by resazurin dye reduction assay; assay type: cell-based

| Structure (SMILES) | IC50 (Plasmodium falciparum) [µM] | CC50 at 72 h [1] [µM] |
| --- | --- | --- |
| COC(=O)/C(C)=C/C(=O)O[C@@H]1C[C@H]2C[C@H](OC(=O)C=C(C)C)[C@H](C1)N2C | 63.5 | – |
| C=C(CC(=O)O[C@@H]1C[C@H]2C[C@H](OC(=O)C=C(C)C)[C@H](C1)N2C)C(=O)OC | 22.8 | > 64 |
| C/C=C(/C)C(=O)O[C@H]1C[C@@H]2C[C@@H](OC(=O)/C=C(\C)C(=O)OC)C[C@@H]1N2C | 24.8 | > 64 |
| C/C=C(\C)C(=O)O[C@H]1C[C@@H]2C[C@@H](OC(=O)/C=C(\C)C(=O)OC)C[C@@H]1N2C | 36 | > 64 |
| CCN(CC)Cc1cc(Nc2ccnc3cc(Cl)ccc23)ccc1O | < 0.25 | – |
